Data from article PMC2074523, “Bioavailability and pharmacokinetics of oral topotecan: a new topoisomerase I inhibitor” (British Journal of Cancer, 1996).
Several values for one entry are separate records, joined by “and”; a condition that tells them apart may be missing. Equal values may be shown once. Where a name gives a salt, the structure may show the parent alone. Each block holds one compound with its values, some of them ahead of it.

Experiments:
[1] = clinical; details: for Vd: 1.5 mg m-2, volume of distribution at steady state (Vd,ss)
Source text: British Journal of Cancer (1996) 73, 1268-1271 ff* (C) 1996 Stockton Press All rights reserved 0007-0920/96 $12.00 Bioavailability and pharmacokinetics of oral topotecan: a new topoisomerase I inhibitor JHM Schellens', GJ Creemers', JH Beijnen2, H Rosing2, M de Boer-Dennert', M McDonald3, B Davies4 and J Verweij' 'Department of Medical Oncology, Rotterdam Cancer Institute, 3075 EA Rotterdam, The Netherlands; 2Slotervaart Hospital, Amsterdam, The Netherlands; 3SmithKline & Beecham, UK; 4SmithKline & Beecham, USA. […] The oral dose of 1.5 mg m 2 was administered as a drinking solution of 200 ml on day 1. The i.v. dose of 1.5 mg m-2 was administered as a 30 min continuous infusion on day 2. The bioavailability was calculated as the ratio of the oral to i.v. area under the curve (AUC) calculated up to the last measured time point. […] Keywords: topotecan; bioavailability; topoisomerase I inhibitor Topotecan (SKF 104864) [(S)-9-dimethylaminomethyl-10- hydroxycamptothecin hydrochloride] is a semisynthetic water-soluble analogue of camptothecin (Hsiang and Liu, 1988). Like camptothecin, topotecan is a specific inhibitor of topoisomerase I (Hsiang and Liu, 1988). Topotecan incorporates a stable basic side-chain at the 9-position of the A-ring, which provides water solubility at acid pH. Topotecan is converted to its lactone ring-opened hydrolysis product (hydroxy acid), which reversible pathway is strongly pH dependent. The biological activity of the hydroxy acid has not been fully elucidated (Kingsbury et al., 1991). […] In the present study the bioavailability and pharmacoki- netics of oral topotecan are explored in patients with solid tumours with the aim of providing a basis for further development of clinical studies using chronic oral topotecan. […] The performance status had to be < 2 on the WHO scale and life expectancy >3 months. The minimum age was 18 and maximum age 75 years. The haemoglobulin had to be >6.0 mmol 1 -1 (9 g dl-'), WBC? 3500 ul -', granulocytes , 1000 l-d and platelets >100 000 jil-'. The serum creatinine had to be < 140 imol 1-1 (1.6 mg dl-'), the serum bilirubin <26 µmol 1` (1.5 mg dl-') and alkaline phospha- tase and transaminases <2 times the upper normal limit if liver metastases were absent or -5 times the upper normal limit if liver metastases were present. Topotecan was administered orally and intravenously at a dose of 1.5 mg m-2. Topotecan as supplied for intravenous infusion was diluted for oral dosage. […] The dose was placed in a beaker containing 100 ml of 5% dextrose injection solution. On day 1, patients were asked to drink the entire contents. Subsequently, an additional 100 ml of 5% dextrose injection solution was added to the beaker and taken by the patient. On day 2 topotecan was administered at the same dose as a continuous 30 min intravenous infusion.

[2] = design: method as in unpublished data; details: mean (s.d. 16.3), ref unpublished data; cited from earlier work
[3] = Acute tolerability of oral drinking solution and i.v. infusion of topotecan in patients; type: in vivo, human
Source text: British Journal of Cancer (1996) 73, 1268-1271 ff* (C) 1996 Stockton Press All rights reserved 0007-0920/96 $12.00 Bioavailability and pharmacokinetics of oral topotecan: a new topoisomerase I inhibitor JHM Schellens', GJ Creemers', JH Beijnen2, H Rosing2, M de Boer-Dennert', M McDonald3, B Davies4 and J Verweij' 'Department of Medical Oncology, Rotterdam Cancer Institute, 3075 EA Rotterdam, The Netherlands; 2Slotervaart Hospital, Amsterdam, The Netherlands; 3SmithKline & Beecham, UK; 4SmithKline & Beecham, USA. […] The oral dose of 1.5 mg m 2 was administered as a drinking solution of 200 ml on day 1. The i.v. dose of 1.5 mg m-2 was administered as a 30 min continuous infusion on day 2. The bioavailability was calculated as the ratio of the oral to i.v. area under the curve (AUC) calculated up to the last measured time point. […] Keywords: topotecan; bioavailability; topoisomerase I inhibitor Topotecan (SKF 104864) [(S)-9-dimethylaminomethyl-10- hydroxycamptothecin hydrochloride] is a semisynthetic water-soluble analogue of camptothecin (Hsiang and Liu, 1988). Like camptothecin, topotecan is a specific inhibitor of topoisomerase I (Hsiang and Liu, 1988). Topotecan incorporates a stable basic side-chain at the 9-position of the A-ring, which provides water solubility at acid pH. […]

[4] = Table I, patients 1-12 in order, oral 1.5 mg m-2

- plasma concentration-time curves of the hydroxy acid compared with topotecan ([1]; human, in vivo): higher than those of topotecan
- ratio of the AUC(t) of the hydroxy acid after oral and i.v. administration ([1]; human, in vivo): 0.38 ± 0.12
- Cmax of the hydroxy acid ([1]; human, in vivo, iv): 18.97 ± 2.44 ng/mL
- terminal t1/2 of the hydroxy acid ([1]; human, in vivo, iv): 3.22 ± 0.73 h
- AUC(t) of hydroxy acid, i.v. ([1]; human, in vivo, iv, 1.5 mg): 73.25 ng/h/mL
- Cmax of the hydroxy acid ([1]; human, in vivo, po): 7.50 ± 2.57 ng/mL
- Cmax of the hydroxy acid, range ([1]; human, in vivo, po): 4.66 + 12.32 ng ml-1
- plasma concentration on day 2, before administration of the second dose ([1]; human, in vivo, po): undetectable
- terminal t1/2 of the hydroxy acid ([1]; human, in vivo, po): 2.82 ± 0.85 h
- AUC(t) of hydroxy acid, oral ([1]; human, in vivo, po, 1.5 mg): 31.41 ng/h/mL
SMILES: CC[C@@](O)(C(=O)O)c1cc2n(c(=O)c1CO)Cc1cc3c(CN(C)C)c(O)ccc3nc1-2 [hydroxy acid]

- plasma concentration on day 2, before administration of the second dose ([1]; day after oral dose 1.5 mg m-2, LLQ 0.1 ng ml-1): undetectable
- Cmax ([1]; human, in vivo, iv, 1.5 mg, i.v. (individual patients)): 41.8 ng/mL
- clearance ([1]; human, plasma, iv, 1.5 mg): 535 to 1070 mL/min
- clearance ([1]; human, plasma, iv, 1.5 mg m-2): 824 ± 154 mL/min
- half-life ([1]; human, plasma, iv, 1.5 mg m-2, half-life for the initial decline of the plasma concentration-time curve (t1/2 alpha), mean ± s.d., ten patients fitted with a biexponential model): 0.186 h
- half-life ([1]; human, plasma, iv, 1.5 mg m-2, t1/2 beta, after i.v., the patient with the highest bioavailability of 45%): 1.8 h
- half-life ([1]; human, plasma, iv, 1.5 mg m-2, t1/2 beta, mean ± s.d., n=12): 2.4 h
- half-life ([1]; human, plasma, iv, 1.5 mg m-2, t1/2 beta, range, n=12): 1.72 to 2.93 h
- Vd ([1]; human, plasma, iv, mean ± s.d., n=12): 128 L
- Vd ([1]; human, plasma, iv, range, n=12): 86 to 231 L
- Cmax ([1]; human, plasma, iv, 1.5 mg, mean of 12 patients, i.v. 1.5 mg m-2): 37.8 ng/mL
- Tmax ([1]; human, plasma, po, 1.5 mg m-2, Tmax, range of the other 11 patients, without the patient with Tmax 2.5 h): 0.33 to 1.5 h
- half-life ([1]; human, plasma, po, 1.5 mg m-2, t1/2 beta, after oral administration, the patient with the highest bioavailability of 45%): 3.2 h
- half-life ([1]; human, plasma, po, 1.5 mg m-2, t1/2 beta, mean, n=10): 2.43 h
- half-life ([1]; human, plasma, po, 1.5 mg m-2, t1/2 beta, range, n=10): 1.02 to 3.2 h
- Cmax ([1]; human, plasma, po, 1.5 mg, mean of 12 patients, oral 1.5 mg m-2): 5.88 ng/mL
- Cmax ([1]; human, plasma, po, 1.5 mg, oral (individual patients), Table I, patients 1-12 in order, oral 1.5 mg m-2): 5.95 ng/mL
- Tmax ([1]; human, plasma, po, 1.5 mg, time to maximum plasma concentration (Tmax), median, oral 1.5 mg m-2, 12 patients): 0.78 h
- Tmax ([1]; human, plasma, po, 1.5 mg, time to maximum plasma concentration (Tmax), range, oral 1.5 mg m-2, 12 patients): 0.33 to 2.5 h
- AUC(t), range ([1]; i.v. 1.5 mg m-2): 32.50 to 73.68 ng/h/mL
- AUCoo, range ([1]; i.v. 1.5 mg m-2): 43.70 to 81.08 ng/h/mL
- bioavailability (ratio of oral to i.v. AUC(t)) ([1]; mean (s.d. 7.7), oral drinking solution 1.5 mg m-2 day 1 vs 30 min i.v. infusion 1.5 mg m-2 day 2, 12 patients): 30%
- bioavailability if curves extrapolated to infinity (AUCoo) ([1]; mean (s.d. 11.5), oral vs i.v. 1.5 mg m-2): 32%
- AUC(t) ([1]; mean ± s.d., i.v. 1.5 mg m-2): 49.87 ± 10.87 ng/h/mL
- total plasma clearance (Cl) ([1]; mean ± s.d., i.v. 1.5 mg m-2 30 min infusion, n=12): 824+ 154 ml min-1
- AUCoo ([1]; mean ± s.d., i.v. 1.5 mg m-2, extrapolated to infinity): 61.02 ± 10.57 ng/h/mL
- AUC(t) ([1]; mean ± s.d., oral 1.5 mg m-2, up to latest measured time point): 15.18 ± 5.51 ng/h/mL
- AUC(t), range ([1]; oral 1.5 mg m-2): 9.38 to 25.37 ng/h/mL
- bioavailability (ratio of oral to i.v. AUC(t)), range ([1]; range over 12 patients, oral vs i.v. 1.5 mg m-2): 21-45%
SMILES: CC[C@@]1(O)C(=O)OCc2c1cc1n(c2=O)Cc2cc3c(CN(C)C)c(O)ccc3nc2-1 [topotecan, (S)-9-dimethylaminomethyl-10-hydroxycamptothecin hydrochloride]
- Cmax, i.v. (individual patients) ([1]; Table I, patients 1-12 in order, i.v. 1.5 mg m-2): 41.08 ng/mL and 35.92 ng/mL and 43.86 ng/mL and 33.40 ng/mL and 47.18 ng/mL and 40.35 ng/mL and 41.41 ng/mL and 41.21 ng/mL and 42.11 ng/mL and 25.35 ng/mL and 19.57 ng/mL
- Cmax, oral (individual patients) [1, 4]: 5.93 ng/mL and 5.16 ng/mL and 5.45 ng/mL and 5.71 ng/mL and 7.14 ng/mL and 4.71 ng/mL and 5.08 ng/mL and 6.48 ng/mL and 6.67 ng/mL and 5.38 ng/mL and 6.93 ng/mL
- Tmax, oral (individual patients) [1, 4]: 0.5 h (3×) and 1.03 h (2×) and 0.33 h and 1.13 h and 0.52 h and 0.55 h and 2.5 h and 1.5 h and 1.0 h
- F (individual patients) ([1]; Table I, patients 1-12 in order, ratio AUC(t) oral/i.v.): 21% and 30% (2×) and 25% and 38% and 23% (2×) and 22% and 45% and 34% and 35% and 36%
- bioavailability after oral administration in dogs [2]: 35.7%
- acute side-effects ([3]; i.v. and oral 1.5 mg m-2, 12 patients): Neither i.v. nor oral administration was associated with any significant acute side-effect
- tolerability of the oral drinking solution ([3]; oral 1.5 mg m-2 in 200 ml, 12 patients): well tolerated
